Key:
PI3Kα = biological target: T1, PI3Kα (Homo sapiens, UniProt P42336); assay: In vitro PI3 kinase enzyme assay (PI3K ATPLoss); type: biochemical; conditions: recombinant p110α/p85, residual ATP by bioluminescence
T1 construct: Full length p110 subunits of PI3K α, β and δ, N-terminally labeled with polyHis tag; polyHis (N); made in house; host or cells: Sf9 insect cells (baculovirus)
Protocol: Full length p110 subunits of PI3K α, β and δ, N-terminally labeled with polyHis tag, can be co-expressed with p85 with Baculo virus expression vectors in sf9 insect cells. P110/p85 heterodimers can be purified by sequential Ni-NTA, Q-HP, Superdex-100 chromatography. Purified α, β and δ isozymes can be stored at −20° C. in 20 mM Tris, pH 8, 0.2M NaCl, 50% glycerol, 5 mM DTT, 2 mM Na cholate. Truncated PI3Kγ, residues 114-1102, N-terminally labeled with polyHis tag, can be expressed with Baculo virus in Hi5 insect cells. The γ isozyme can be purified by sequential Ni-NTA, Superdex-200, Q-HP chromatography. The γ isozyme can be stored frozen at −80° C. in NaH2PO4, pH 8, 0.2M NaCl, 1% ethylene glycol, 2 mM β-mercaptoethanol.
PI3K enzyme assays (alpha, beta, delta and gamma) can be performed in 25 μL with the above final concentrations of components in white polyproplyene plates. Phosphatidyl inositol phosphoacceptor, PtdIns(4,5)P2 (e.g. P4508) can be obtained from Echelon Biosciences, Salt Lake City, Utah. The ATPase activity of the alpha and gamma isozymes may not be greatly stimulated by PtdIns(4,5)P2 under these conditions, it can be omitted from the assay of these isozymes. Test compounds can be dissolved in DMSO and diluted with three-fold serial dilutions. The compound in DMSO (1 μL) may be added per test well, and the inhibition relative to reactions containing no compound, with and without enzyme can be determined. After assay incubation at RT, the reaction can be stopped and residual ATP can be determined by addition of an equal volume of a commercial ATP bioluminescence kit (Perkin Elmer EasyLite, Perkin Elmer, Waltham, Mass.) according to the manufacturer's instructions, and detected using an Analyst GT luminometer.

[1] = test system: Akt phosphorylation at Ser473 in HCT116 cells; assay: Cell-based phospho-AKT Ser473 assay (HCT116 Cell), MSD sandwich immunoassay; conditions: Homo sapiens, HCT-116, 2 h, read-out: HCT116 Cell IC50, HCT116 cells, 2 h compound, IGF-1 stimulation, pAkt Ser473;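 note: IGF-1 added at 100 ng/mL for 15 min after compound treatment, electrochemiluminescent readout of phospho-Akt, DMSO-only wells define maximum signal, IC50 reflects inhibition of phosphorylation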
From the text: This assay determines the ability of a compound to inhibit the phosphorylation of Serine 472 in Akt using a MSD based sandwich immunoassay (Meso Scale Detection, Meso Scale Discovery (MSD), Gaithersburg, Md.). HCT116 human colon carcinoma cell lines can be grown in McCoy's 5A growth medium (GIBCO, Carlsbad, Calif.) containing 10% FBS (GIBCO, Carlsbad, Calif.) and X1 Penicillin-streptomycin-glutamine (GIBCO, Carlsbad, Calif.). Prior to the assay, cells can be detached from the culture flask with trypsin, and re-suspended in complete media to give a final concentration of 1.6×10^5 cells per mL. Aliquots (100 μl) of the HCT116 cell suspension can be seeded into each well of a 96 well tissue culture plate to give a final density of 16,000 cells per well. Cells can then be incubated overnight at 37° C.
The following day the cells can be treated with serially diluted test compounds and incubated for 2 hours at 37° C. The culture media on the HCT 116 cells can be replaced with 189 μL McCoys media, supplemented with 0.1% BSA (ICN Biomedicals, Inc., Costa Mesa, Calif.). […] Aliquots (1 μL) of serially-diluted compounds can be transferred to 96 well tissue culture plates containing the HCT 116 cells. […] As a maximum response control, wells can contain 0.5% DMSO in place of compound. The plates can be mixed at 700 rpm for 2 min to ensure even distribution of the test compound and incubated for 2 hours at 37° C. Cells can then be stimulated with insulin-like growth factor 1 (Sigma, St Louis, Mo.) at final concentration of 100 ng/mL for 15 minutes at 37° C. The media can then be removed and the cells treated with 80 μL cell-lysis buffer (MSD) containing a cocktail of protease and phosphatase inhibitors for one hour at 4° C.
25 μL Cell lysate can then be transferred to pre-blocked MSD assay plates pre-coated with a capture antibody specific for Akt, and the plates can be incubated for 2 hours at room temperature. The cell lysates can then be removed and plates can then be washed four times with 200 μl per well of Tris wash buffer (500 mM Tris, PH 7.5, 1.5 M NaCl, 0.2% Tween-20). Subsequently cells can be incubated for 1 hour at room temperature with a 25 μL solution containing the detection antibody, anti-phospho Akt (Ser 473) labeled with an electrochemiluminescent compound (Meso Scale Discovery SULPHO-TAG™ label, MSD, Gaithersburg, Md.). The detection antibody can be removed and plates can then be washed four times with 200 μL per well of Tris wash buffer. An aliquot of 150 μL of diluted MSD read buffer can then be applied to each well, and the electrochemiluminescent signal can be measured using a MSD SECTOR™ plate reader (Meso Scale Discovery, Gaithersburg, Md.). This instrument measures the intensity of emitted light to determine a quantitative measure of phosphorylated Akt in each well. The dose-response data obtained with each compound can be analyzed and the IC50 inhibition of Akt phosphorylation at Ser473 can be calculated.

[2] = test system: phosphorylation of Akt at Serine 473 in U87 MG cells; assay: pAkt AlphaScreen (U87 Cell); type: cell-based; conditions: Homo sapiens, U-87 MG, 2 h, 2 h compound, pAkt Ser473 AlphaScreen
Protocol: The pAkt AlphaScreen® assay (PerkinElmer, Waltham, Mass.) determines whether there is phosphorylation of Akt at Serine 473 by recruitment of a phosphospecific antibody. This assay was performed using U87 MG cells. The U87 growth media consists of MEM (Gibco, Carlsbad, Calif.) supplemented with 10% FBS (Gibco), 1× Non-Essential Amino Acids (Gibco) and 1× Penicillin/Streptomycin/Glutamine (Gibco). The cells were maintained weekly using 0.05% Trypsin (Gibco) and replated in 150 mm TC-Treated Culture Dishes (Corning, Corning, N.Y.).
The first day of the assay, the adherent cells were trypsinized, media was added to the loose cells and cells were mixed to a homogenous mixture. 0.5 ml of the homogenous mixture was counted on the Beckman Coulter® Vi-CELL™ XR (Fullerton, Calif.). 50 frames of cells were counted and the number of viable cells was determined. The cells were then diluted to 0.25 million cells per ml, and centrifuged at 200 rcf for 5 minutes. The media was removed and the cells were reconstituted in fresh media for plating. The cells were plated at 20 μl per well on the PerkinElmer® Flexprop PLUS in Low Volume 384 Well White Tissue Culture Plates (Corning) with a final cell density of 5K cells per well. The plates were incubated overnight at 37° Celsius, 5% CO2.
On the second day, the compound plates were prepared, the cells were treated with compound and the pAkt reaction mix was added to the cell lysate. 384 well compound plates were prepared containing 1 μl of compound per well starting at 5 mM and diluted 1:2 across the row, resulting in a 22 well serial dilution. 39 μl of growth media was added to the compound plate in rows 1-22 using the PerkinElmer® FlexDrop PLUS resulting in a DMSO concentration of 2.5%. The cell plates and diluted compound plates were put onto the VELOCITY11™ VPREP™ 384 ST where the compound plate was mixed and 5 μl of serially diluted compound or controls was added to the cell plate. The final concentration of the compounds was 25 μM serially diluted to 11.9 pM in 0.5% DMSO. The cell plates were then incubated with compound for two hours at 37° Celsius, 5% CO2. After two hours, the media in the cell plates was aspirated using the BioTek® ELx405HT plate washer (Winooski, Vt.) removing the majority of media and compound without disturbing the adherent U87 cells. The following assay reagents are components of the SureFire® Akt (Ser 473) Phosphorylation 50K Point Kit (TGR BioSciences, Adelaide, Australia) and an IgG Detection Kit (PerkinElmer, Waltham, Mass.). 5 μl of 1× Lysis Buffer was added to each well using the PerkinElmer® FlexDrop PLUS. The plates were then incubated at room temperature on a shaker for ten minutes. The AlphaScreen® reaction was prepared under low light conditions (subdued or green light) including p-Akt (Ser 473) Reaction Buffer, Dilution Buffer, Activation Buffer, Acceptor Beads and Donor Beads at a ratio of 40:20:10:1:1 respectively. The AlphaScreen® reaction was added to the cell lysate at 6 μl per well using the PerkinElmer® FlexDrop PLUS. The plates were placed in a humid environment to reduce edge effects and incubated overnight at room temperature with restricted air flow in the dark.
On the final day of the experiment, the plates were read on the PerkinElmer® EnVision™ 2103 Multilable Reader using the standard AlphaScreen® readout. The POC is calculated and the data is analyzed to report the IC50 IP for pAkt at Serine 473.

T1 sequence (P42336 whole entry, species assumed): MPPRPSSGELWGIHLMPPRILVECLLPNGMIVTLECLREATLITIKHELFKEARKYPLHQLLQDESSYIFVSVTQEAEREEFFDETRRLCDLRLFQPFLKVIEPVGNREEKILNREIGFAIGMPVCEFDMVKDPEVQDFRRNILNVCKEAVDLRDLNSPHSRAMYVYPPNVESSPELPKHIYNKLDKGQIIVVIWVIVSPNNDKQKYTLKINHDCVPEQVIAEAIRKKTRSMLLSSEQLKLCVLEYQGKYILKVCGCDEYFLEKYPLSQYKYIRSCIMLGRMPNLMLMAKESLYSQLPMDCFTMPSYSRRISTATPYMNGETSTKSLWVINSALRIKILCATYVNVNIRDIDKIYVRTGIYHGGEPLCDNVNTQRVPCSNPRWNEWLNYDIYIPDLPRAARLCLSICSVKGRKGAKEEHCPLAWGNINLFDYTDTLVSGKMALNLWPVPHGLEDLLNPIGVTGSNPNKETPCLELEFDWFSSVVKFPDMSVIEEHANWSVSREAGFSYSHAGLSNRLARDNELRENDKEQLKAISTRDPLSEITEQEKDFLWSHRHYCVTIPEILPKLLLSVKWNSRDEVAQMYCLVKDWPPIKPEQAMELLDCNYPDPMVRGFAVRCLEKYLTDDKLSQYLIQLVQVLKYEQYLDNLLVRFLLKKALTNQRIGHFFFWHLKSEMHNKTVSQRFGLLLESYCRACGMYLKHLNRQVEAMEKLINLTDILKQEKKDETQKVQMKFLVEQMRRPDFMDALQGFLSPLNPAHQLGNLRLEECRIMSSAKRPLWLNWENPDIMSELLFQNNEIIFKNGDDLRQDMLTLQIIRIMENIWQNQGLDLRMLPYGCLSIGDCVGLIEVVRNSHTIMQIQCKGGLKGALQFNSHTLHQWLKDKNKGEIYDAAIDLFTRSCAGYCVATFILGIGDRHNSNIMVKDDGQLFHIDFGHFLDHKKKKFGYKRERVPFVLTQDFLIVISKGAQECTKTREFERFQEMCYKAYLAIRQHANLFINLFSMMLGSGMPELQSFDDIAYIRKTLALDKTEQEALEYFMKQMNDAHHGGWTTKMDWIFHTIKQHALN
T1 sequence (P27986 whole entry partner, species assumed): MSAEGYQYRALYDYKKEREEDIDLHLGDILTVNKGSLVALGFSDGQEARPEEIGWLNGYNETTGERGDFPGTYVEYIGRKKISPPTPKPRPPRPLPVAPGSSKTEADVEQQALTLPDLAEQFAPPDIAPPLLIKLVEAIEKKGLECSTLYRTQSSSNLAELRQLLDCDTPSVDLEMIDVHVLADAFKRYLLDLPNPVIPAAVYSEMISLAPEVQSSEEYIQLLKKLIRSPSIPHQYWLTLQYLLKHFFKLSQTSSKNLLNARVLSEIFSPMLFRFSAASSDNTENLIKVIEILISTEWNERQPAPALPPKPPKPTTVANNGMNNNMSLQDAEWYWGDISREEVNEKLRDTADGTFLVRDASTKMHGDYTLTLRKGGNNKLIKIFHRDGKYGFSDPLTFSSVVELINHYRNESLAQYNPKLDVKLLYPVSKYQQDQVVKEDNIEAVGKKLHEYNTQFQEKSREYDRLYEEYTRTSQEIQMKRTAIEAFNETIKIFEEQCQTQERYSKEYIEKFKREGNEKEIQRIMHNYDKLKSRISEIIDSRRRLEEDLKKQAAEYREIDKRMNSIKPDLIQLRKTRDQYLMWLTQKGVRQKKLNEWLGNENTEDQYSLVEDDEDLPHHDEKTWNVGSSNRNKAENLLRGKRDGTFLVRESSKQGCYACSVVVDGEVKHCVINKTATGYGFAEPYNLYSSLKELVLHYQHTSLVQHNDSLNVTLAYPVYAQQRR

Row | SMILES | IC50 (PI3Kα) [nM] | IC50 [1] [nM] | IC50 [2] [nM]
1 | CSc1cncc(-c2ccc3nc(NC(C)=O)cn3n2)c1 [Example 8, N-(6-(5-(Methylthio)pyridin-3-yl)imidazo[1,2-b]pyridazin-2-yl)acetamide] | 60 | 1200 | 
2 | CC(=O)Nc1cn2nc(-c3cccc(NS(=O)(=O)c4cccc5ccccc45)c3)ccc2n1 [Example 7, N-(6-(3-(Naphthalene-1-sulfonamido)phenyl)imidazo[1,2-b]pyridazin-2-yl)acetamide] | 62 | 456 | 
3 | CC(=O)Nc1cn2cc(-c3cncc(NS(C)(=O)=O)c3)ccc2n1 [Example 17, N-(6-(5-(Methylsulfonamido)pyridin-3-yl)H-imidazo[1,2-a]pyridin-2-yl)acetamide] | 37 | 29300 | 
4 | Nc1nc2ccc(-c3cnc(Cl)c(NS(=O)(=O)c4ccc(F)cc4)c3)cc2n1-c1ccccn1 [Example 31, N-(5-(2-Amino-1-(pyridin-2-yl)-1H-benzo[d]imidazol-6-yl)-2-chloropyridin-3-yl)-4-fluorobenzenesulfonamide] | 8 | 868 | 
5 | COc1ccc(S(=O)(=O)N(C)c2nccc(-c3ccc4nc(NC(C)=O)cn4c3)n2)cc1 [Example 13, N-(6-(2-(4-Methoxy-N-methylphenylsulfonamido)pyrimidin-4-yl)H-imidazo[1,2-a]pyridin-2-yl)acetamide] | 146 | 847 | 
6 | CC(=O)Nc1cn2nc(-c3cnc(Cl)c(NS(=O)(=O)c4ccc(F)cc4Cl)c3)ccc2n1 [Example 40, N-(6-(6-Chloro-5-(2-chloro-4-fluorophenylsulfonamido)pyridin-3-yl)imidazo[1,2-b]pyridazin-2-yl)acetamide] | 5 | 55 | 21
7 | CC(=O)Nc1cn2cc(-c3cncc(NS(=O)(=O)c4ccc(F)cc4)c3)ccc2n1 [Example 15, N-(6-(5-(4-Fluorophenylsulfonamido)pyridin-3-yl)H-imidazo[1,2-a]pyridin-2-yl)acetamide] | 10 | 975 | 
8 | CC(=O)Nc1cn2nc(-c3cnc(Cl)c(NS(=O)(=O)N4CCOCC4)c3)ccc2n1 [Example 41, N-(6-(6-Chloro-5-(morpholine-4-sulfonamido)pyridin-3-yl)imidazo[1,2-b]pyridazin-2-yl)acetamide] | 6 | 75 | 47
9 | CC(=O)Nc1nc2ccc(-c3cnc(Cl)c(NS(=O)(=O)c4ccc(F)cc4)c3)cc2n1-c1ccccn1 [Example 32, N-(6-(6-Chloro-5-(4-fluorophenylsulfonamido)pyridin-3-yl)-1-(pyridin-2-yl)-1H-benzo[d]imidazol-2-yl)acetamide] | 49 | 2720 | 
10 | CNC(C)c1ccc(S(=O)(=O)Nc2cc(-c3ccc4nc(NC(C)=O)cn4n3)cnc2Cl)cc1 (racemic) [Example 37, N-(6-(6-chloro-5-(4-(1-(methylamino)ethyl)phenylsulfonamido)pyridin-3-yl)imidazo[1,2-b]pyridazin-2-yl)acetamide] | 7 | 244 | 
11 | CC(=O)Nc1cn2nc(-c3cncc(S(C)(=O)=O)c3)ccc2n1 [Example 10, N-(6-(5-(Methylsulfonyl)pyridin-3-yl)imidazo[1,2-b]pyridazin-2-yl)acetamide] | 104 | 869 | 
12 | CC(=O)Nc1cn2nc(-c3cccc(N(C)S(=O)(=O)c4ccc(C)cc4)c3)ccc2n1 [Example 2, N-(6-(3-(N,4-Dimethylphenylsulfonamido)phenyl)imidazo[1,2-b]pyridazin-2-yl)acetamide] | 98 | 462 | 
13 | CC(=O)Nc1cn2cc(-c3cncc(NS(=O)(=O)C4CC4)c3)ccc2n1 [Example 16, N-(6-(5-(Cyclopropanesulfonamido)pyridin-3-yl)H-imidazo[1,2-a]pyridin-2-yl)acetamide] | 19 | 14400 | 
14 | CC(=O)Nc1cn2nc(-c3cccc(NS(=O)(=O)c4ccc(C)cc4)c3)ccc2n1 [Example 1, N-(6-(3-(4-Methylphenylsulfonamido)phenyl)imidazo[1,2-b]pyridazin-2-yl)acetamide] | 55 | 214 | 
15 | CC(=O)Nc1nc2cc(-c3cnc(Cl)c(NS(=O)(=O)c4ccc(F)cc4)c3)ccc2[nH]1 [Example 30, N-(5-(6-Chloro-5-(4-fluorophenylsulfonamido)pyridin-3-yl)-1H-benzo[d]imidazol-2-yl)acetamide] | 12 | 1100 | 
16 | CC(=O)Nc1cn2nc(-c3cnc(Cl)c(NS(=O)(=O)c4ccc(C)cc4)c3)ccc2n1 [Example 42, N-(6-(6-Chloro-5-(4-methylphenylsulfonamido)pyridin-3-yl)imidazo[1,2-b]pyriadazin-2-yl)acetamide] | 6 |  | 5
17 | CC(=O)Nc1nc2ccc(-c3cnc(Cl)c(NS(C)(=O)=O)c3)nn2c1-c1cccc(F)c1 [Example 22, N-(6-(6-Chloro-5-(methylsulfonamido)pyridin-3-yl)-3-(3-fluorophenyl)imidazo[1,2-b]pyridazin-2-yl)acetamide] | 15 |  | 3200
18 | CS(=O)(=O)Nc1cc(-c2ccc3nc(N)c(-c4ccncc4)n3n2)cnc1Cl [Example 27, N-(5-(2-Amino-3-(pyridin-4-yl)imidazo[1,2-b]pyridazin-6-yl)-2-chloropyridin-3-yl)methanesulfonamide] | 154 |  | 3500
19 | CC(=O)Nc1cn2nc(-c3cncc(NS(=O)(=O)c4ccc(F)cc4)c3)ccc2n1 [Example 11, N-(6-(5-(4-Fluorophenylsulfonamido)pyridin-3-yl)imidazo[1,2-b]pyridazin-2-yl)acetamide] | 6 | 213 | 
20 | CC(=O)Nc1cn2nc(-c3ccnc(Sc4ccccc4F)c3)ccc2n1 [Example 4, N-(6-(2-(2-Fluorophenylthio)pyridin-4-yl)imidazo[1,2-b]pyridazin-2-yl)acetamide] | 77 | 1140 | 
21 | CC(=O)Nc1cn2nc(-c3cc(NS(=O)(=O)c4ccc(F)cc4)c(Cl)nn3)ccc2n1 [Example 52, N-(6-(6-Chloro-5-(4-fluorophenylsulfonamido)pyridazin-3-yl)imidazo[1,2-b]pyridazin-2-yl)acetamide] | 691 |  | 523
